Data on four substances can be found in patent publication US10220069B2, “Compositions and methods for treating diabetes” (THE JOHNS HOPKINS UNIVERSITY, priority 2014, dated 2019).

Where no end group is shown, it is not given here.

In assay [1] the target is T1, GPR54 (Mus musculus, UniProt Q91V45).
T1 construct: Mouse brain, mouse islets, insulinoma cells, and human islets express Kiss1R; from tissue; host or cells: isolated mouse pancreatic islets (WT / Kiss1Rfl/fl, C57Bl/6 background)
Kind of assay: GSIS from WT islets exposed to K10 or diabetic mouse serum with K234. It counts as cell-based. The text has this: (§1) Accordingly, based on the above outlined considerations on β-cell dysfunction and hyperglucagonemia, we reasoned that glucagon receptor-mediated signaling in the liver is required to initiate β-cell dysfunction and to impair glucose-stimulated insulin secretion. We therefore inducibly disinhibited cAMP-PKA signaling in vivo in adult mouse liver by ablating hepatic protein kinase A regulatory subunit 1A (prkar1a) by adenovirus mediated hepatic CRE recombinase transduction in floxed prkar1a mice (L-Δprkar1a mice) 14 (FIG. 22A). Upregulation of hepatic cAMP-PKA signaling within 3 days stimulated hepatic gluconeogenesis causing increase in fasting glucose levels and insufficient insulin secretion to correct glycemia. Conversely, identical baseline fasting glycemia achieved in mice by continuous exogenous glucose infusion for 3 days 15 (D-glucose mice) was associated with increased insulin secretion and relatively mild impairment of glucose tolerance despite continued exogenous glucose infusions (FIG. 22B). Differential hepatic gene expression analysis between these two mouse models identified the gene encoding the secreted neuropeptide kisspeptin-1 (Kiss1) to be markedly elevated (8× on mRNA array, 15× on qRT-PCR) in L-Δprkar1a but not in D-glucose mice (FIG. 22C). […] The kisspeptin receptor Gpr54 expression was detected at significant levels in pancreatic islets (FIG. 26). […]

Assay [2] concerns the target T1, GPR54. The experiment in a line: Glucose tolerance in db/db diabetic mice treated with K234. The assay is classed as in vivo.
Text: as §1

For assay [3] the following is noted: intravenous bolus, circulating kisspeptin not measured; cited from earlier work.
Another assay has as its system mouse Kiss1 promoter. The experiment in a line: Kiss1 promoter luciferase reporter in H2.35 hepatoma cells. It counts as cell-based. Conditions: 1 kb mouse Kiss1 promoter. On the procedure:
Cell Culture Studies. Mouse primary hepatocytes were isolated and cultured as described (He et al., 2009). H2.35 hepatoma cell line was cultured and transfected as described (He et al., 2009). 1 kb of the 5' untranslated region of the mouse Kiss1 gene were cloned by PCR into pGL4. The CRE half sites ([…]) within the promoter region were mutated by site directed mutagenesis to (TATGT). Luciferase activity was measured in cell lysates using a luminometer (Berthold) after treatment each for 2 hours with forskolin/IBMX (100 μM each) or glucagon (200 pg/ml) or/and insulin (2000 pg/ml). Dominant-negative A-CREB (Ahn et al., 1998) and WT CREB were from Addgene. Constitutively active CREB […] (Du et al., 2000) was generated by site directed mutagenesis of WT CREB. […] The mouse Kiss1 promoter contains two putative functional cAMP response element (CRE) half-sites (TGACT) (Zhang et al., 2005) located at _127 and _758 bp upstream of the Kiss1 transcription start site. Mutation of either of the CRE half-sites decreased the transcriptional responses to glucagon or to fsk/IBMX, and combined mutation of both CRE half-sites further decreased the responses (FIG. 9A).

Assay [4] addresses T2, Gcgr (Mus musculus, UniProt Q61606).
T2 construct: endogenous in cells; host or cells: live mice (WT, Gcgrfl/fl, HFD-fed C57Bl/6, Lepr db/db); hepatic receptor
The experiment in a line: Intraperitoneal glucagon: hepatic kisspeptin1 production. It counts as in vivo. Here is the method: (§2) Intraperitoneal glucose tolerance (ipGTT) and insulin tolerance (ipITT) tests were performed according to standard protocols (Song et al., 2013; Song et al., 2011). After 9 am-3 pm fasting, animals were administered 20% D-glucose (via ip injection), insulin 0.5 U/kg i.p. […] The glucagon receptor antagonist GAI (N-(3-Cyano-6-(1,1-dimethylpropyl)-4,5,6,7-tetrahydro-1-benzothien-2-yl)-2-ethylbutanamide (Qureshi et al., 2004) and its non-active analogue were administered (50 mg/kg i.p. in DMSO) in HFD fed and Lepr^db/db mice 60 min before i. GTT. Intraperitoneal pyruvate converstion (1 g/kg i.p.) test (ipPCT) in ΔL-Prkar1a mice was performed in the fed state (9 am) to avoid any confounding effects of fasting-induced elevated endogenous glucagon levels. Tail-vein blood was collected at the indicated times in figures for glucose and insulin measurements. Serum insulin was measured using mouse magnetic bead panel (Millipore, Luminex). Plasma for glucagon measurements was drawn from mice in the fed state at 9 am, unless otherwise noted for fasting studies. Plasma glucagon (Alpco) and kisspeptin1 (USCN Life Sciences Inc. E92559Ra) were measured by ELISA according to manufacturer's instructions including dilution of samples.
(§3) Kiss1 transcript was also detectable by qRT-PCR at low levels in spleen, kidney, skeletal muscle, and epididymal fat tissue.

Assay [5] concerns Gcgr. The description is as above. The assay is classed as in vivo, mouse. Particulars: mice lacking liver Gcgr, ip glucagon. Here is the method:
as §2, §3

For assay [6], the system named is Kiss1. The experiment in a line: Kiss1 expression in primary mouse hepatocytes. Particulars: for Kiss1 expression / Pck1 expression: primary mouse hepatocytes, glucagon 200 pg/ml, insulin 2000 pg/ml; for Kiss1 expression: 2 hr. The assay is classed as cell-based. Here is the method:
Cell Culture Studies. Mouse primary hepatocytes were isolated and cultured as described (He et al., 2009). H2.35 hepatoma cell line was cultured and transfected as described (He et al., 2009). 1 kb of the 5' untranslated region of the mouse Kiss1 gene were cloned by PCR into pGL4. The CRE half sites (TGCAT) within the promoter region were mutated by site directed mutagenesis to (TATGT). Luciferase activity was measured in cell lysates using a luminometer (Berthold) after treatment each for 2 hours with forskolin/IBMX (100 μM each) or glucagon (200 pg/ml) or/and insulin (2000 pg/ml). Dominant-negative A-CREB (Ahn et al., 1998) and WT CREB were from Addgene. Constitutively active CREB […] (Du et al., 2000) was generated by site directed mutagenesis of WT CREB. Glucagon Stimulates Hepatic Kiss1 Expression Via Gcgr and cAMP-PKA-CREB Signaling. We next examined whether glucagon directly stimulates hepatic kisspeptin1 production. Glucagon treatment (200 pg/ml) of primary mouse hepatocytes stimulated within 2 hr Kiss1 expression and protein (FIGS. 2A-2C).

In assay [7] the test system is Kiss1. Kind of assay: ip insulin in L-Δprkar1a mice: hepatic Kiss1. The assay is classed as in vivo, mouse. Particulars: 1 IU/kg ip, within 60 min. Here is the method:
Consistent with these observations of insulin counterregulation of PKA-mediated Kiss1 stimulation, in vivo ip insulin (1 IU/kg) administration in L-Δprkar1a mice to supplement relatively deficient endogenous serum insulin concentrations and to achieve blood glucose reduction, decreased hepatic Kiss1 mRNA and protein levels within 60 min (FIGS. 8I-8K).

T1 sequence (Q91V45 whole entry): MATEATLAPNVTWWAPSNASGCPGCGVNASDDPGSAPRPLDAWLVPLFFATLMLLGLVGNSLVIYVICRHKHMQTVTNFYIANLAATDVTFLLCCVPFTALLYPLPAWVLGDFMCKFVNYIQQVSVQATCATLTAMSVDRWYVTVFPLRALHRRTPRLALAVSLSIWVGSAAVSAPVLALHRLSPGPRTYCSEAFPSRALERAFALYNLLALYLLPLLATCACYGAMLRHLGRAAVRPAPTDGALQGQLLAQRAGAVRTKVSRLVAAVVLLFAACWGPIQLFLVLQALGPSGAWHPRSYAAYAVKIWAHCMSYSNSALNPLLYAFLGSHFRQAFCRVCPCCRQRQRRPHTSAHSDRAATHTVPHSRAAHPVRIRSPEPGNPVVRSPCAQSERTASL
T2 sequence (Q61606 27-485): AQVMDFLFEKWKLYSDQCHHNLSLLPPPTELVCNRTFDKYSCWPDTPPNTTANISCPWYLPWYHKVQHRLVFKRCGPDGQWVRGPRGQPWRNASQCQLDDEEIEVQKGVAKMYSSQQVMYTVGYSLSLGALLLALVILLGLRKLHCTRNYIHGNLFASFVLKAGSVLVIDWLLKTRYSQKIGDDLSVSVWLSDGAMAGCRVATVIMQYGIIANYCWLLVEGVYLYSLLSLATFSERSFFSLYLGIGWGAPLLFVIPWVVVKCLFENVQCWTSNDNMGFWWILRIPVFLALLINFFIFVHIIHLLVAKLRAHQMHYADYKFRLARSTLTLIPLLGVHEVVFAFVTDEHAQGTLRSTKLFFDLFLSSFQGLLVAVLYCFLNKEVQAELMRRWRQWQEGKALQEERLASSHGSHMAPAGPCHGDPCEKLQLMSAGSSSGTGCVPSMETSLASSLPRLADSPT

As for “K234: GPR54 receptor antagonist, Kisspeptin derivative (SEQ ID NOS:36-37; Roseweir et al. 2009)”, the “impaired GSIS of WT islets exposed to diabetic serum” value with GPR54 [1] (10% serum from L-Δprkar1a, db/db and ob/ob mice, co-incubation with K234) is listed as “recovered”. Besides, in the assay with GPR54 [1] (WT islets, K10 10 nM), the “effects of K10 on islets (FIG. 27)” value is reported as “counteracts effects of k10”. The glucose tolerance entry with GPR54 [2] is “dramatic improvement in glucose tolerance”.

Take “Tyr-Asn-Trp-Asn-Ser-Phe-Gly-Leu-Arg-Phe-NH2 (YNWNSFGLRF-NH2; listed as Homo sapiens) [K10, 10 amino acid C-terminal kisspeptin fragment, GPR54 agonist]”: the GSIS entry in assay [3] was “stimulate GSIS”.

As to glucagon, in the assay on mouse Kiss1 promoter, the “Kiss1 promoter luciferase reporter activity” value is on record as “transcriptional activation”. Moreover, the “liver Kiss1 transcript and kisspeptin protein in L-ΔInsr mice” value with Gcgr [4] (compared to Insrfl/fl mice) is recorded as “dramatically increased”. For the same substance, in the assay with Gcgr [4] (mice, 16 mg/kg ip, 30 min after injection, versus PBS), the “hepatic kisspeptin1 production” value is on record as “increased hepatic kisspeptin1 production”. Moreover, the “kisspeptin production in L-ΔGcgr mice” value with Gcgr [5] is “did not change”. In the assay with Kiss1 [6], the Kiss1 expression entry is “stimulated” and the Pck1 expression entry is reported as “also stimulated”.

In the case of insulin, the “hepatic Kiss1 mRNA and protein levels” value in the assay on Kiss1 [7] is given as “decreased”. For the same substance, in the assay on Kiss1 [6] (mouse hepatocytes, insulin plus glucagon), the “glucagon stimulated Kiss1 and Pck1 expression” value is given as “dampened”. In addition, in the assay on Kiss1 [6], the Kiss1 expression result is recorded as “reduced basal Kiss1 expression” and the Pck1 expression result was “also reduced Pck1 expression”.
